Where two headings read alike, the source gives them in different places.
How the values were obtained:
[1] = molecular target: T1, hOAT (Homo sapiens, UniProt P04181); experiment: coupled enzyme hOAT assay; format: biochemical
T1 construct: made in house
T1 sequence (P04181 36-439 limits assumed): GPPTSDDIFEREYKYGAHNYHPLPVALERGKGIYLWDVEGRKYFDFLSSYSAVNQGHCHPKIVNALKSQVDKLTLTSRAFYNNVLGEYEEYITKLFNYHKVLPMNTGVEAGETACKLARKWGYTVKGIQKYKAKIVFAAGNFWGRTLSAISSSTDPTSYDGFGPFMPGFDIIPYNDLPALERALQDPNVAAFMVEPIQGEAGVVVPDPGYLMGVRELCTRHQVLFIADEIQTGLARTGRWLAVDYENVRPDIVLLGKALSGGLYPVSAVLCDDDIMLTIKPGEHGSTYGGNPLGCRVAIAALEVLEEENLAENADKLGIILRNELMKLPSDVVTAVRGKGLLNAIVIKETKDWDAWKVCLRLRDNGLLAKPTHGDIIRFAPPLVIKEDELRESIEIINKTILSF
Protocol: With inhibitors in hand, we tested for activity in a previously developed coupled enzyme hOAT assay.^9,21
hOAT and PYCR1 were expressed, grown, and purified according to literature procedures.^22,23 GABA-AT was isolated from pig brains and purified according to literature procedure.^16 Coupled enzyme assays for GABA-AT and hOAT were carried out according to previous procedures.^15,21 All chemical were purchased from Sigma Aldrich, Acros Organics, or Matrix Scientific and used without further purification. Anhydrous solvents (THF, CH2Cl2, DMF) were purified before use by passing through a column composed of activated alumina and a supported copper redox catalyst. Yields refer to chromatographically and spectroscopically (^1H-NMR) homogeneous material. Analytical thin-layer chromatography (TLC) was performed using Merck Silica Gel 60 Å F-254 precoated plates (0.25 mm thickness), and components were visualized by ultraviolet light (254 nm) and/or ceric ammonium molybdate stain. Flash column chromatography was performed on a Teledyne Combiflash Rf Plus automated flash purification system with various Teledyne cartridges (4-80 g, 40-63 μm, 60 Å). Purifications were performed with hexanes and ethyl acetate unless otherwise noted. ^1H and ^13C NMR spectra were recorded on a Bruker Avance-III NMR spectrometer at 500 MHz and 126 MHz, respectively, in CDCl3 or D2O. Chemical shifts were reported in ppm, multiplicities are indicated by s=singlet, d=doublet, t=triplet, q=quartet, sep=septet, dd=doublet of doublet, dt=doublet of triplet, m=multiplet, br=broad resonance. Coupling constants were reported in Hz. High resolution mass spectral data were obtained on an Agilent 6210 LC-TOF spectrometer in the positive ion mode using electrospray ionization with an Agilent G1312A HPLC pump and an Agilent G1367B autoinjector at the Integrated Molecular Structure Education and Research Center (IMSERC), Northwestern University. Analytical HPLC was performed by using a reserved-phase Agilent Infinity 1260 HPLC with a Phenomenex Kintex C-18 column (50×2.1 mm, 2.6 μm), detecting with UV absorbance at 254 nm.

[2] = molecular target: T1, hOAT; conditions: earlier work, cited from earlier work
[3] = tested on: HCC; conditions: HCC infected/bearing mice; cited from earlier work

Row | Ki ([1]; hOAT inactivation) [µM] | kinact ([1]; hOAT inactivation, read-out: kinact (converted)) [s⁻¹] | kinact/KI ([1]; hOAT inactivation, read-out: kinact/KI (converted)) [M⁻¹ s⁻¹] | activity against hOAT (in words) ([1]; hydrochloride) | activity against hOAT (in words) ([1]; listed as (1S,3S,Z)-3-amino-4-(1,1,1-trifluoro-3-methoxy-3-oxopropan-2-ylidene)cyclopentan, hydrochloride) | activity against hOAT (in words) [1] | Compound | kinact [1] [s⁻¹] | kinact/KI [1] [M⁻¹ s⁻¹] | inhibition/inactivation of human OAT (in words) [2] | inhibition/inactivation of human OAT (in words) ([2]; listed as (1S,3 S)-3-amino-4-(perfluoropropan-2-ylidene)cyclopentane-1-carboxylic acid) | HCC marker protein alpha-fetoprotein [3] | tumor size [3]
1 | 130 | 0.00167 | 12.2 | similarly potent inhibitor of hOAT | active |  | COC(=O)/C(=C1\C[C@H](C(=O)O)C[C@@H]1N)C(F)(F)F.Cl [Compound 10, (1S,3S,Z)-3-amino-4-(1,1,1-trifluoro-3-methoxy-3-oxopropan-2-ylidene)cyclopentane-1-carboxylic acid hydrochloride] |  |  |  |  |  | 
2 | ≥ 2000 |  |  |  |  | inactive | COC(=O)/C(=C1/C[C@H](C(=O)O)C[C@@H]1N)C(F)(F)F.Cl [Compound 11, (1S,3S,E)-3-amino-4-(1,1,1-trifluoro-3-methoxy-3-oxopropan-2-ylidene)cyclopentane-1-carboxylic acid hydrochloride] |  |  |  |  |  | 

Row | Compound | Ki ([1]; hOAT inactivation) [µM] | kinact ([1]; hOAT inactivation, read-out: kinact (converted)) [s⁻¹] | kinact/KI ([1]; hOAT inactivation, read-out: kinact/KI (converted)) [M⁻¹ s⁻¹] | activity against hOAT (in words) ([1]; hydrochloride) | activity against hOAT (in words) ([1]; listed as (1S,3S,Z)-3-amino-4-(1,1,1-trifluoro-3-methoxy-3-oxopropan-2-ylidene)cyclopentan, hydrochloride) | activity against hOAT (in words) [1] | kinact [1] [s⁻¹] | kinact/KI [1] [M⁻¹ s⁻¹] | inhibition/inactivation of human OAT (in words) [2] | inhibition/inactivation of human OAT (in words) ([2]; listed as (1S,3 S)-3-amino-4-(perfluoropropan-2-ylidene)cyclopentane-1-carboxylic acid) | HCC marker protein alpha-fetoprotein [3] | tumor size [3]
3 | N[C@H]1C[C@@H](C(=O)O)CC1=C(C(F)(F)F)C(F)(F)F [Compound 1, (1S,3S)-3-amino-4-(perfluoropropan-2-ylidene)cyclopentane-1-carboxylic acid] | 53 |  |  |  |  |  | 0.00133 | 25.7 | potent inhibitor | potent inactivator | decrease | decrease

Reference: US11203596B2, “Analogs of 3-amino-4-(propan-2-ylidene)cyclopentane-1-carboxylic acid and uses thereof for treating diseases and disorders associated with ornithine aminotransferase activity” (Northwestern University, priority 2019, dated 2021)
